TGI data for 18 molecules are collected here from PubChem BioAssay (NCI).

Molecules are shown by their SMILES.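 Values below derive from 48-hour exposures of cells grown in 96-well plates, with endpoints linearly interpolated between the two concentrations bracketing the appropriate inhibition level. TGI denotes the concentration required for complete inhibition of growth.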

One assay deals with SF-539 CNS. The assay is described as follows: NCI anticancer screen, dose series, 48 h.
`C[C@@H](C(=O)O)N1C(c2ccco2)=C(/C(C=O)=C\c2ccco2)C(=O)/C1=C\c1ccco1` yielded a TGI of more than 100 µM.

Regarding `O=c1oc2ccccc2c(Nc2ccc3c(c2)Sc2ccccc2O3)c1[N+](=O)[O-]`, the TGI was 85 µM.

The molecule `O=C(NN1C(=O)C(Cl)C1c1ccc(Cl)cc1)c1c(Cl)c(Cl)c(Cl)c(Cl)c1-c1nc2ccccc2[nH]1` (stereo not drawn) gave a TGI of more than 100 µM.

Another assay concerns SK-OV-3 ovarian. In words: NCI anticancer screen, dose series, 48 h.
`O=C(O)CO[C@@]12C#C/C=C\C#C[C@@H]3N(C(=O)Oc4ccccc4)c4ccccc4[C@]14O[C@@]34CCC2` showed a TGI of 19.9 µM.

As for `CC(C)(C)C1=C(Br)C(C(C)(C)C)OP1(=O)O` (stereo not drawn), the TGI is more than 100 µM.

Turning to `COc1c(=O)cc2cc[nH]c3cc[nH]c1c23`, the TGI is more than 100 µM.

For `CC(C)NC(=O)OCc1c2c(n(C)c1COC(=O)NC(C)C)-c1cc(Cl)c(Cl)cc1CC2`, the TGI is more than 100 µM.

For the molecule `CCOC(=O)c1sc(=S)n(-c2ccc(Cl)cc2)c1-n1cc(-c2ccccc2)c(C#N)c1N`, the TGI was found to be 36 µM.

The molecule `COC1(OC)N=C(N)C2(C#N)C(c3ccccc3)NC3=C(CCC3)C12C#N` (stereo not drawn) returned a TGI of more than 100 µM.

Take `Cc1cc(C)c2c(=O)cc(-c3cccc4ccccc34)[nH]c2n1`: the TGI is more than 42 µM.

`COc1ccc2nc(N/N=C/c3sccc3C)cc(C)c2c1` came in with a TGI of 32.1 µM.

The molecule `Nc1cc([N+](=O)[O-])ccc1C(=O)N1CCC[C@H]1CO` registered a TGI of more than 100 µM.

`CC[C@@H](C)[C@H](NC(=O)[C@H](Cc1ccccc1)NCC(F)(F)F)C(=O)OC(C)(C)C`: the TGI was more than 100 µM.

`NC(=Nc1ccccc1Cl)c1ccccc1N` gave a TGI of more than 100 µM.

In turn, `O=c1oc2ccccc2c(Nc2ccc3c(c2)Sc2ccccc2O3)c1[N+](=O)[O-]` gave a TGI of more than 100 µM.

Take `O=C(NN1C(=O)C(Cl)C1c1ccc(Cl)cc1)c1c(Cl)c(Cl)c(Cl)c(Cl)c1-c1nc2ccccc2[nH]1` (stereo not drawn): the TGI is more than 100 µM.

In a further assay the test system is SNB-19 CNS. The assay is described as follows: NCI anticancer screen, dose series, 48 h.
`O=C(O)CO[C@@]12C#C/C=C\C#C[C@@H]3N(C(=O)Oc4ccccc4)c4ccccc4[C@]14O[C@@]34CCC2` gave a TGI of more than 100 µM.

In the case of `CC(C)(C)C1=C(Br)C(C(C)(C)C)OP1(=O)O` (stereo not drawn), the TGI is more than 100 µM.

As for `Cc1c(-c2ccccc2)cc(O)c2nc3ccccc3n12`, the TGI is more than 100 µM.

Take `Cc1cccc(Cl)c1NCC(O)CN1CCN(C)CC1` (stereo not drawn): the TGI was more than 100 µM.

In turn, `Cc1ccc(C(=O)O)c(/C=C2\Cc3ccc(C)cc3C2=O)c1` gave a TGI of more than 100 µM.

In the case of `COc1c(=O)cc2cc[nH]c3cc[nH]c1c23`, the TGI is more than 100 µM.

With `CC(C)NC(=O)OCc1c2c(n(C)c1COC(=O)NC(C)C)-c1cc(Cl)c(Cl)cc1CC2`, the TGI is more than 100 µM.

On to `CCOC(=O)c1sc(=S)n(-c2ccc(Cl)cc2)c1-n1cc(-c2ccccc2)c(C#N)c1N`, for which the TGI was 41.6 µM.

Take `COC1(OC)N=C(N)C2(C#N)C(c3ccccc3)NC3=C(CCC3)C12C#N` (stereo not drawn): the TGI was more than 100 µM.

`Cc1cc(C)c2c(=O)cc(-c3cccc4ccccc34)[nH]c2n1` registered a TGI of more than 51.8 µM.

Take `N#Cc1c(-c2ccc(Cl)cc2)c2c(n(C3OC(CO)C(O)C(O)C3O)c1=S)CCCC2` (stereo not drawn): the TGI is more than 100 µM.

Molecule `COc1ccc2nc(N/N=C/c3sccc3C)cc(C)c2c1` showed a TGI of more than 100 µM.

Molecule `Nc1cc([N+](=O)[O-])ccc1C(=O)N1CCC[C@H]1CO` registered a TGI of more than 100 µM.

On to `CC[C@@H](C)[C@H](NC(=O)[C@H](Cc1ccccc1)NCC(F)(F)F)C(=O)OC(C)(C)C`, for which the TGI is more than 100 µM.

`NC(=Nc1ccccc1Cl)c1ccccc1N` came in with a TGI of more than 100 µM.

The molecule `C[C@@H](C(=O)O)N1C(c2ccco2)=C(/C(C=O)=C\c2ccco2)C(=O)/C1=C\c1ccco1` registered a TGI of more than 100 µM.

For `O=c1oc2ccccc2c(Nc2ccc3c(c2)Sc2ccccc2O3)c1[N+](=O)[O-]`, the TGI is more than 100 µM.

As to `O=C(NN1C(=O)C(Cl)C1c1ccc(Cl)cc1)c1c(Cl)c(Cl)c(Cl)c(Cl)c1-c1nc2ccccc2[nH]1` (stereo not drawn), the TGI is more than 100 µM.

The next assay deals with TK-10 renal. The assay is described as follows: NCI anticancer screen, dose series, 48 h.
Consider `O=C(O)CO[C@@]12C#C/C=C\C#C[C@@H]3N(C(=O)Oc4ccccc4)c4ccccc4[C@]14O[C@@]34CCC2`, for which the TGI is more than 100 µM.

Regarding `CC(C)(C)C1=C(Br)C(C(C)(C)C)OP1(=O)O` (stereo not drawn), the TGI is more than 100 µM.

`Cc1c(-c2ccccc2)cc(O)c2nc3ccccc3n12`: the TGI is more than 100 µM.

`Cc1cccc(Cl)c1NCC(O)CN1CCN(C)CC1` (stereo not drawn): the TGI was more than 100 µM.

With `Cc1ccc(C(=O)O)c(/C=C2\Cc3ccc(C)cc3C2=O)c1`, the TGI was more than 100 µM.

Molecule `COc1c(=O)cc2cc[nH]c3cc[nH]c1c23` returned a TGI of more than 100 µM.

On to `CC(C)NC(=O)OCc1c2c(n(C)c1COC(=O)NC(C)C)-c1cc(Cl)c(Cl)cc1CC2`, for which the TGI turned out to be 84.5 µM.

With `CCOC(=O)c1sc(=S)n(-c2ccc(Cl)cc2)c1-n1cc(-c2ccccc2)c(C#N)c1N`, the TGI turned out to be 24.4 µM.

`COC1(OC)N=C(N)C2(C#N)C(c3ccccc3)NC3=C(CCC3)C12C#N` (stereo not drawn) gave a TGI of more than 100 µM.

As to `Cc1cc(C)c2c(=O)cc(-c3cccc4ccccc34)[nH]c2n1`, the TGI was more than 87.1 µM.

`N#Cc1c(-c2ccc(Cl)cc2)c2c(n(C3OC(CO)C(O)C(O)C3O)c1=S)CCCC2` (stereo not drawn) registered a TGI of more than 100 µM.

Consider `COc1ccc2nc(N/N=C/c3sccc3C)cc(C)c2c1`, for which the TGI is 28.1 µM.

In turn, `Nc1cc([N+](=O)[O-])ccc1C(=O)N1CCC[C@H]1CO` gave a TGI of more than 100 µM.

`CC[C@@H](C)[C@H](NC(=O)[C@H](Cc1ccccc1)NCC(F)(F)F)C(=O)OC(C)(C)C` had a TGI of more than 100 µM.

For `NC(=Nc1ccccc1Cl)c1ccccc1N`, the TGI is more than 100 µM.

Turning to `C[C@@H](C(=O)O)N1C(c2ccco2)=C(/C(C=O)=C\c2ccco2)C(=O)/C1=C\c1ccco1`, the TGI was more than 100 µM.

For `O=c1oc2ccccc2c(Nc2ccc3c(c2)Sc2ccccc2O3)c1[N+](=O)[O-]`, the TGI worked out at 53.9 µM.

The next assay has as its system UO-31 renal. In words: NCI anticancer screen, dose series, 48 h.
Regarding `O=C(O)CO[C@@]12C#C/C=C\C#C[C@@H]3N(C(=O)Oc4ccccc4)c4ccccc4[C@]14O[C@@]34CCC2`, the TGI stood at 90 µM.

Turning to `CC(C)(C)C1=C(Br)C(C(C)(C)C)OP1(=O)O` (stereo not drawn), the TGI is more than 100 µM.

`Cc1c(-c2ccccc2)cc(O)c2nc3ccccc3n12` gave a TGI of more than 100 µM.

`Cc1cccc(Cl)c1NCC(O)CN1CCN(C)CC1` (stereo not drawn) showed a TGI of more than 100 µM.

Turning to `Cc1ccc(C(=O)O)c(/C=C2\Cc3ccc(C)cc3C2=O)c1`, the TGI is more than 100 µM.

In turn, `COc1c(=O)cc2cc[nH]c3cc[nH]c1c23` registered a TGI of more than 100 µM.

The molecule `CC(C)NC(=O)OCc1c2c(n(C)c1COC(=O)NC(C)C)-c1cc(Cl)c(Cl)cc1CC2` showed a TGI of more than 100 µM.

`COC1(OC)N=C(N)C2(C#N)C(c3ccccc3)NC3=C(CCC3)C12C#N` (stereo not drawn) registered a TGI of more than 100 µM.

For `Cc1cc(C)c2c(=O)cc(-c3cccc4ccccc34)[nH]c2n1`, the TGI is more than 100 µM.

On to `N#Cc1c(-c2ccc(Cl)cc2)c2c(n(C3OC(CO)C(O)C(O)C3O)c1=S)CCCC2` (stereo not drawn), for which the TGI was more than 100 µM.

The molecule `COc1ccc2nc(N/N=C/c3sccc3C)cc(C)c2c1` registered a TGI of 65.1 µM.

In turn, `Nc1cc([N+](=O)[O-])ccc1C(=O)N1CCC[C@H]1CO` registered a TGI of more than 100 µM.

In turn, `CC[C@@H](C)[C@H](NC(=O)[C@H](Cc1ccccc1)NCC(F)(F)F)C(=O)OC(C)(C)C` displayed a TGI of more than 100 µM.

`NC(=Nc1ccccc1Cl)c1ccccc1N` came in with a TGI of more than 100 µM.

In the case of `C[C@@H](C(=O)O)N1C(c2ccco2)=C(/C(C=O)=C\c2ccco2)C(=O)/C1=C\c1ccco1`, the TGI was more than 100 µM.

`O=c1oc2ccccc2c(Nc2ccc3c(c2)Sc2ccccc2O3)c1[N+](=O)[O-]` showed a TGI of more than 100 µM.

`O=C(NN1C(=O)C(Cl)C1c1ccc(Cl)cc1)c1c(Cl)c(Cl)c(Cl)c(Cl)c1-c1nc2ccccc2[nH]1` (stereo not drawn) came in with a TGI of more than 100 µM.
